Tested on: Meloidogyne incognita
Assay: Test against Meloidogyne spp., soil pot test (tomato)
Type: in vivo
Details: 10 ppm active ingredient in soil contaminated with Meloidogyne incognita; tomato (Kurihara) in pots, greenhouse, 4 weeks; from root knot index
Description: Test Against Meloidogyne spp. Soil pot Test
Preparation of Test Agent:
1 Part of the active compound is impregnated to 99 parts of pumice to obtain fine granules.
The test agent prepared as mentioned above was added to soil contaminated with Meloidogyne incognita to a chemical concentration of 10 ppm and homogeneously mixed by stirring. A pot (1/5000 are) was filled with the soil. About 20 seeds of tomato (variety: Kurihara) were sown per pot. After cultivation in a greenhouse for 4 weeks, they were carefully pulled out not to damage the roots and the root knot index and the controlling effect were determined as follows.
Degree of damage 0: No knots were formed (Complete control).
1: A few knots were formed.
2: Knots were formed to a medium extent.
3: Knots were formed to an intense extent.
4: Knots were formed to the most intense extent (which corresponds to non-treatment). [formula]
The controlling effect of the compounds tested can then be evaluated according to the following equation: [formula]
The evaluation of the controlling effects of the compounds according to the present invention was done on the basis of the values of the controlling effect which can be obtained in the above-mentioned way and were connected with the following standards:
a: Controlling effect 100-71%
b: Controlling effect 70-50%
c: Controlling effect less than 50%

O=S(=O)(CCC(F)=C(F)F)c1ncc(Cl)s1 [Example 3, 5-chloro-2-(3,4,4-trifluoro-3-butenylsulfonyl)thiazole]
Evaluation of controlling effect: a (Controlling effect 100-71%)

[O-][S+](CCC(F)=C(F)F)c1ncc(Cl)s1 (stereo not drawn) [Example 2, 5-chloro-2-(3,4,4-trifluoro-3-butenylsulfinyl)thiazole]
Evaluation of controlling effect: a (Controlling effect 100-71%)

FC(F)=C(F)CCSc1ncc(Cl)s1 [Example 1, 5-chloro-2-(3,4,4-trifluoro-3-butenylthio)thiazole]
Evaluation of controlling effect: a (Controlling effect 100-71%)

Source: US6734198B1, “Nematicidal trifluorobutenes” (Nihon Bayer Agrochem K.K., priority 1999, dated 2004)
